Source: ChEMBL document CHEMBL4706575, “Nonpeptidic quinazolinone derivatives as dual nucleotide-binding oligomerization domain-like receptor 1/2 antagonists for adjuvant cancer chemotherapy” (Eur J Med Chem, 2020)

Key:
[1] = target: Nucleotide-binding oligomerization domain-containing protein 2 (Homo sapiens, UniProt Q9HC29); experiment: Antagonist activity at recombinant human NOD2 expressed in HEK293 cells assessed as inhibition of MDP-induced IL8 release measured after 24 hrs by HTRF assay; format: cell-based
Chain of Nucleotide-binding oligomerization domain-containing protein 2 (Q9HC29 whole entry, the tested form may be a part): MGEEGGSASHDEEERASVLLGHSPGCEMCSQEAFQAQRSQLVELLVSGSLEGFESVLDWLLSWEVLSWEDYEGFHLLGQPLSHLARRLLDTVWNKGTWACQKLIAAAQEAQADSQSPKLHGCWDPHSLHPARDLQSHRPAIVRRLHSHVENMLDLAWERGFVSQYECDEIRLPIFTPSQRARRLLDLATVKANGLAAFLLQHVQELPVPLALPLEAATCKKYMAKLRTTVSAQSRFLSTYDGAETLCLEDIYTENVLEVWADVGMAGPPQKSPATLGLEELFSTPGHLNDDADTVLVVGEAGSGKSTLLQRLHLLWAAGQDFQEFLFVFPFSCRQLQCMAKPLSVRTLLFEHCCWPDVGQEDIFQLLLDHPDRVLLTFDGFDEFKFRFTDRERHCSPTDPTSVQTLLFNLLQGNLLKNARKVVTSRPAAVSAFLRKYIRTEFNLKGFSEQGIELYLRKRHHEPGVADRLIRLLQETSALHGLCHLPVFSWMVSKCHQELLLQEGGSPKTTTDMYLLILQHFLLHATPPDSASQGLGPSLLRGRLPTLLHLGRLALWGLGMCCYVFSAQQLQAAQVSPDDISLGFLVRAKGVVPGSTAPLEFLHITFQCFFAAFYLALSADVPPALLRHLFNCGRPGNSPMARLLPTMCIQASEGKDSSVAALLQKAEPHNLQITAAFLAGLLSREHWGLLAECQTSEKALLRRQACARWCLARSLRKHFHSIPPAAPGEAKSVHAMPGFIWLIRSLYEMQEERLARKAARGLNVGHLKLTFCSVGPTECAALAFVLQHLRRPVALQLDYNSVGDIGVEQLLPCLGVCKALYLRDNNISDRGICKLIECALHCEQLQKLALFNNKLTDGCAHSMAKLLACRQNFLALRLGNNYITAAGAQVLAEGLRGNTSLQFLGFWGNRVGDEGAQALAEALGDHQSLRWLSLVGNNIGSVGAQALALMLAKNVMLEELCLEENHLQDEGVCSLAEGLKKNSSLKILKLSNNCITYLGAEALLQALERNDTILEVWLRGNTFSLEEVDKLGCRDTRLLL

[2] = target: T1, Nucleotide-binding oligomerization domain-containing protein 1 (Homo sapiens, UniProt Q9Y239); experiment: Antagonist activity at recombinant human NOD1 expressed in HEK293 cells assessed as inhibition of C12-iE-DAP-induced IL8 release measured after 24 hrs by HTRF assay; format: cell-based
T1 sequence (Q9Y239 whole entry): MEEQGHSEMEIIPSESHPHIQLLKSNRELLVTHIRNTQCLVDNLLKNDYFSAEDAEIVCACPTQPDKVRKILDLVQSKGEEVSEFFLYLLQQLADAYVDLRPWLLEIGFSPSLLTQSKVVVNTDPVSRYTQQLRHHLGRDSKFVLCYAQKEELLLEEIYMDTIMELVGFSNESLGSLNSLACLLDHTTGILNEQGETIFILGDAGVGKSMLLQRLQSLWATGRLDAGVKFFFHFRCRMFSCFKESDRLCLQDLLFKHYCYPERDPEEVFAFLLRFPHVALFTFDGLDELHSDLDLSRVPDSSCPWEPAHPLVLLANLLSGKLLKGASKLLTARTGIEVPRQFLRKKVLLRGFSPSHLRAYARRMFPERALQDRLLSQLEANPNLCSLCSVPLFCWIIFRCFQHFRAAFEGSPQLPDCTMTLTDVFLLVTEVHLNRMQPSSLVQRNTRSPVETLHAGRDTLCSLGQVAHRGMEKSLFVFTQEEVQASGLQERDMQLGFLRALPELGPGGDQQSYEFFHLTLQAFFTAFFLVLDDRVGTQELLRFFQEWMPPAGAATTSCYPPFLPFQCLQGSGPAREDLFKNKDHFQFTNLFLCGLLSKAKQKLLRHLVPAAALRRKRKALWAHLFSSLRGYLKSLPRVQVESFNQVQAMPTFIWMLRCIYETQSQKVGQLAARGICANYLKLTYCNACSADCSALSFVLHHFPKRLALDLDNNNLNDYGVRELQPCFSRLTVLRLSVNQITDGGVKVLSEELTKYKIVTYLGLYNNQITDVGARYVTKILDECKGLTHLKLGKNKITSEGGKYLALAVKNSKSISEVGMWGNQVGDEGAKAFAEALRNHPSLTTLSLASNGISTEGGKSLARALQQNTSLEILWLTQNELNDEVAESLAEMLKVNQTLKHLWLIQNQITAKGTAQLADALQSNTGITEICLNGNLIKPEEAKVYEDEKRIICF

IC50 [1]: 3.3 µM | IC50 [2]: > 50 µM
SMILES: O=C(Cn1c(CCNC(=O)c2ccccc2)nc2ccccc21)Nc1ccc2c(c1)CCC2
